Assay results reported in patent US8772031B2, “Composition for reprogramming somatic cells to generate induced pluripotent stem cells, comprising Oct4 in combination with Bmi1 or its upstream regulator, and method for generating induced pluripotent stem cells using the same” (Korea University Research and Business Foundation, priority 2009, dated 2014).

How the values were obtained:
Format in all cases: cell-based
[1] = system: mouse embryonic fibroblasts; test: Reprogramming of treated fibroblasts into neural stem cell-like cells (morphology, AP staining, immunochemistry); conditions: neural stem cell-culturing conditions, immunochemistry for SSEA1, Nestin, Sox2
Method: (§1) The fibroblasts prepared in Example 1 were examined for Bmi1 expression when they were treated with Shh or an analog thereof, such as oxysterol or purmorphamine. FIGS. 9A, 14A and 22A are RT-PCR results showing the effect of Shh (Sonic hedgehog), known as an upstream regulator of Bmi1, or its analogs on the expression of genes downstream thereof.
The induced neural stem cell-like cells were positively analyzed by AP staining and immunochemistry for SSEA1, Nestin and Sox2 (FIGS. 9C, 14C and 22C).

[2] = system: mouse embryonic fibroblasts; test: Generation of iPS cells by retroviral Oct4 introduction during treatment with Shh or its analog, then embryonic stem cell culture conditions; conditions: Oct4 retrovirus three times at 16 hr intervals, treatment for 72 hrs, reprogramming process for 10-14 days
[3] = system: adult mouse embryonic fibroblasts; test: Establishment of iPS cells (OO-iPS-TTF #1, 2) by Oct4 introduction during treatment with oxysterol; conditions: oxysterol 0.1 μM and 0.5 μM with Oct4 introduction
Excerpt: The reprogramming method established with mouse embryonic fibroblasts was applied to adult mouse embryonic fibroblasts. […] 00-iPS-TTF #1 and 2 were positively stained with AP and found to express SSEA1, Oct4, Sox2, and Nanog as measured by immunochemical staining assays (FIG. 19A).

[4] = system: Bmi1 expression in mouse embryonic fibroblasts; test: Bmi1 expression by treatment with Shh or Shh analog (RT-PCR of downstream genes) under neural stem cell-culturing conditions; conditions: for expression of Gli1 and Bmi1 (RT-PCR) / expression of the Bmi1 target genes p16^Ink4a and p19^Arf (RT-PCR): DMEM/F12+B27+N2+bFGF+EGF; for Sox2 expression level: culture condition for neural stem cells
Method: Mouse embryonic fibroblasts were employed to generate embryonic stem cell-like cells. Embryos were taken from CF1 strain mice on embryonic day 13.5. Cells were cultured in DMEM (high glucose, w/o sodium pyruvate) supplemented with 10% FBS (Fetal bovine serum), 0.1 mM non-essential amino acid, 1% penicillin/streptomycin and 0.1 mM β-mercaptoethanol in tissue culture flasks, after which fibroblasts at the 3rd passage were seeded at a density of 2×10^5 cells/well into 6-well plates.
as §1

[5] = 0.1 μM and 0.5 μM of hydroxycholesterol
[6] = 0.5 μM or 1 μM of purmorphamine

`C[C@H](CCCC(C)(C)O)[C@H]1CC[C@H]2[C@@H]3CC=C4C[C@@H](O)CC[C@]4(C)[C@H]3CC[C@]12C` [hydroxycholesterol, 25-hydroxycholesterol] was tested, and the “morphology and neural stem cell markers of the treated cells” value [1] was “morphology similar to that of neural stem cells and express nestin and sox2”, the “appearance of ES cell-like colonies” value [2] was “colonies appeared with the same morphology as ES cells” and the “derivation of embryonic stem cell-like cells from adult fibroblasts” value [3] was “allowed the derivation of embryonic stem cell-like cells”. For the same compound, the “expression of Gli1 and Bmi1 (RT-PCR)” value [4, 5] was “upregulation”, the “expression of the Bmi1 target genes p16^Ink4a and p19^Arf (RT-PCR)” value [4, 5] was “downregulation” and the Sox2 expression level [4] was “increase”.
For `c1ccc2c(Oc3nc(Nc4ccc(N5CCOCC5)cc4)c4ncn(C5CCCCC5)c4n3)cccc2c1` [purmorphamine, 2-(1-Naphthoxy)-6-(4-morpholinoanilino)-9-cyclohexylpurine], the “morphology and neural stem cell markers of the treated cells” value [1] was “morphology similar to that of neural stem cells and express nestin and sox2”, the “appearance of ES cell-like colonies” value [2] was “colonies appeared with the same morphology as ES cells” and the “expression of Gli1 and Bmi1 (RT-PCR)” value [4, 6] was “upregulation”. For the same compound, the “expression of the Bmi1 target genes p16^Ink4a and p19^Arf (RT-PCR)” value [4, 6] was “downregulation” and the Sox2 expression level [4] was “increase”.
